Test results published in PubChem BioAssay AID330 (DTP/NCI, 2004).
Inconclusive results and toxic doses are left out.

Test system: P388 leukemia ip, CD2F1 mice, survival T/C
Assay: NCI In Vivo Anticancer Drug Screen. Data for tumor model P388 Leukemia (intraperitoneal) in CD2F1 (CDF1) mice
Settings: endpoint: median survival time, higher = longer survival
In short: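 Mice carrying the transplanted tumor received test compound or vehicle. Survival was recorded in each group, and the value is the treated-group measurement divided by that of the vehicle-treated control group.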

In the case of C1CCC2C[N-]CCC2C1.C1CCC2C[N-]CCC2C1.C1CCC2C[N-]CCC2C1.C1CCC2C[N-]CCC2C1.[Cl][Rh][Cl] (stereo unspecified), the T/C (dose: 0.06 mg/kg/injection, schedule: Q03HX024 (ip), vehicle: saline) is reported as 105 % of control, the T/C (dose: 0.13 mg/kg/injection, schedule: Q03HX008 (ip), vehicle: saline) is reported as 113 % of control and the T/C (dose: 0.13 mg/kg/injection, schedule: Q03HX016 (ip), vehicle: saline) is reported as 105 % of control. For the same compound, the T/C (dose: 0.13 mg/kg/injection, schedule: Q03HX024 (ip), vehicle: saline) was 100 % of control, the T/C (dose: 0.25 mg/kg/injection, schedule: Q01DX009 (ip), vehicle: saline) was 107 % of control and the T/C (dose: 0.25 mg/kg/injection, schedule: Q03HX008 (ip), vehicle: saline) was 118 % of control. The T/C (dose: 0.25 mg/kg/injection, schedule: Q03HX016 (ip), vehicle: saline) was 110 % of control, the T/C (dose: 0.25 mg/kg/injection, schedule: Q03HX024 (ip), vehicle: saline) was 108 % of control and the T/C (dose: 0.5 mg/kg/injection, schedule: Q01DX009 (ip), vehicle: saline) was 110 % of control. The T/C (dose: 0.5 mg/kg/injection, schedule: Q03HX008 (ip), vehicle: saline) was 123 % of control, the T/C (dose: 0.5 mg/kg/injection, schedule: Q03HX016 (ip), vehicle: saline) was 116 % of control and the T/C (dose: 0.5 mg/kg/injection, schedule: Q03HX024 (ip), vehicle: saline) was 117 % of control. For the same compound, the T/C (dose: 0.5 mg/kg/injection, schedule: Q04DX003 (ip), vehicle: saline) was 111 % of control, the T/C (dose: 1.0 mg/kg/injection, schedule: Q01DX001 (ip), vehicle: saline) was 118 % of control and the T/C (dose: 1.0 mg/kg/injection, schedule: Q03HX008 (ip), vehicle: saline) was 121 % of control. The T/C (dose: 1.0 mg/kg/injection, schedule: Q03HX016 (ip), vehicle: saline) was 115 % of control, the T/C (dose: 1.0 mg/kg/injection, schedule: Q04DX003 (ip), vehicle: saline) was 113 % of control and the T/C (dose: 1.0 mg/kg/injection, schedule: Q08DX002 (ip), vehicle: saline) was 114 % of control. The T/C (dose: 1.3 mg/kg/injection, schedule: Q01DX009 (ip), vehicle: water) was 111 % of control, the T/C (dose: 2.0 mg/kg/injection, schedule: Q01DX001 (ip), vehicle: saline) was 119 % of control and the T/C (dose: 2.0 mg/kg/injection, schedule: Q03HX008 (ip), vehicle: saline) was 119 % of control. The T/C (dose: 2.0 mg/kg/injection, schedule: Q04DX003 (ip), vehicle: saline) was 115 % of control, the T/C (dose: 2.0 mg/kg/injection, schedule: Q08DX002 (ip), vehicle: saline) was 121 % of control and the T/C (dose: 3.0 mg/kg/injection, schedule: Q01DX009 (ip), vehicle: water) was 111 % of control. The T/C (dose: 3.13 mg/kg/injection, schedule: Q04DX003 (ip), vehicle: saline with Tween-80) was 150 % of control, the T/C (dose: 4.0 mg/kg/injection, schedule: Q01DX001 (ip), vehicle: saline) was 118 % of control and the T/C (dose: 4.0 mg/kg/injection, schedule: Q03HX016 (ip), vehicle: saline) was 110 % of control. The T/C (dose: 4.0 mg/kg/injection, schedule: Q04DX003 (ip), vehicle: saline) was 124 % of control, the T/C (dose: 4.0 mg/kg/injection, schedule: Q08DX002 (ip), vehicle: saline) was 123 % of control and the T/C (dose: 6.25 mg/kg/injection, schedule: Q04DX003 (ip), vehicle: saline with Tween-80) was 150 % of control. For the same compound, the T/C (dose: 8.0 mg/kg/injection, schedule: Q08DX002 (ip), vehicle: saline) was 123 % of control and the T/C (dose: 12.5 mg/kg/injection, schedule: Q04DX003 (ip), vehicle: saline with Tween-80) was 90 % of control.

For Cc1cc(Br)ccc1N=Nc1c(C)noc1C, the T/C (dose: 100.0 mg/kg/injection, schedule: Q04DX002 (ip), vehicle: saline) was 104 % of control, the T/C (dose: 200.0 mg/kg/injection, schedule: Q04DX002 (ip), vehicle: saline) was 104 % of control and the T/C (dose: 400.0 mg/kg/injection, schedule: Q04DX002 (ip), vehicle: saline) was 101 % of control.

In the case of CCn1c(=O)c2c(nc(Cl)n2C2OC(COC(C)=O)C(OC(C)=O)C(OC(C)=O)C2OC(C)=O)n(CC)c1=O (stereo unspecified), the T/C (dose: 25.0 mg/kg/injection, schedule: Q01DX009 (ip), vehicle: Klucel (hydroxypropylcellulose) (HPC)) is reported as 100 % of control, the T/C (dose: 50.0 mg/kg/injection, schedule: Q01DX009 (ip), vehicle: Klucel (hydroxypropylcellulose) (HPC)) is reported as 99 % of control and the T/C (dose: 100.0 mg/kg/injection, schedule: Q01DX009 (ip), vehicle: Klucel (hydroxypropylcellulose) (HPC)) is reported as 99 % of control.

In the case of O=C(c1ccncc1)c1cccc(Cl)c1, the T/C (dose: 50.0 mg/kg/injection, schedule: Q01DX009 (ip), vehicle: saline with Tween-80) is reported as 103 % of control, the T/C (dose: 100.0 mg/kg/injection, schedule: Q01DX009 (ip), vehicle: saline with Tween-80) is reported as 108 % of control and the T/C (dose: 200.0 mg/kg/injection, schedule: Q01DX009 (ip), vehicle: saline with Tween-80) is reported as 104 % of control.
